{
  "source": "paper PMC9374377",
  "about": "“Noninvasive interrogation of CD8^+ T cell effector function for monitoring early tumor responses to immunotherapy” (The Journal of Clinical Investigation, 2022)",
  "key": {"4T1 tumor–bearing mice": {"tested_on": "4T1 tumor–bearing mice", "conditions": "mouse, in vivo", "method": "(§1) Small-animal PET scanning and image analysis were performed using a Super Nova PET/CT scanner ([sequence]). […] At the indicated times (0.5, 1, and 2 hours) after injection, 10-minute static PET scans were acquired. PET images were analyzed, and the region of interest–derived (ROI-derived) %ID/g values were calculated as described previously ([52])."}, "MC38 tumor–bearing mice [1]": {"tested_on": "MC38 tumor–bearing mice", "conditions": "mouse, in vivo", "method": "as §1\nMC38 tumor-bearing C57BL/6 mice were pretreated with anti-PD-1 antibody\nFor the small-animal PET imaging studies, ten MC38 tumor-bearing C57BL/6 mice\nCTLA-4 (clone 9D9; BioXcell) antibodies on days 0, 3, and 6 after the tumor size\ngrazytracer. Mice were anesthetized with 2% inhaled isoflurane, and 10-min static PET\nscans were acquired at 0.5, 1, and 2 h postinjection using a small-animal Super Nova\nPET/CT scanner ([sequence], Shanghai, China). The tumor %ID/g values and tumor-\nto-muscle ratios of 68Ga-NOTA-GZP and 68Ga-grazytracer were calculated for"}, "[2]": {"assay": "In vivo metabolic stability (serum and urine, radio-HPLC)", "parameters": "species or system mouse", "conditions": "female C57BL/6 normal mice, 5.55 MBq i.v.", "from_the_text": "μg/day on days 0, 3, and 6).\ndistribution of the radiotracer in the main organs. Mice were euthanized at 0.5, 1, and\nand measured using a γ counter (Packard, Meriden, CT). The results are presented as\nIn vivo metabolic stability studies\ngrazytracer or 68Ga-NOTA-GZP.\nand analyzed using radio-HPLC."}, "MC38 tumor–bearing mice [3]": {"tested_on": "MC38 tumor–bearing mice", "assay": "FTY720 treatment of MC38 tumor–bearing mice under anti–PD-1 plus anti–CTLA-4", "type": "in vivo, mouse", "from_the_text": "MC38 or B16-OVA tumor–bearing C57BL/6 mice were euthanized, and tumor tissues were harvested and digested with 10 U/mL collagenase I, 400 U/mL collagenase IV, and 30 U/mL DNase (Yuanye Bio-Technology) to generate single-cell suspensions. The following fluorescently labeled antibodies were then used for staining of different markers: anti-CD45 (clone 30-F11, BioLegend), anti-CD4 (clone RM4-5, eBioscience), anti-CD8 (clone 53-6.7, BioLegend), anti-NK1.1 (clone PK136, BioLegend), anti–granzyme B (clone QA16A02, BioLegend), and anti–IFN-γ (clone XMG1.2, BioLegend). For granzyme B and IFN-γ staining, cells were incubated in culture medium containing a cell activation cocktail (catalog 423303, BioLegend) at 37°C for 5 hours and then washed with permeabilization wash buffer (catalog 421002, BioLegend) before being stained with fluorescently labeled antibodies. Data collection and analysis were performed on a flow cytometer (Becton Dickinson).\nThe tumor sections were fixed with ice-cold acetone for 10 minutes and washed with PBS. Next, the slices were blocked with 1% BSA for 1 hour and incubated with rabbit anti–mouse granzyme B antibody (catalog 17215S, Cell Signaling Technology) or rabbit anti–mouse NK1.1 antibody (clone EPR22990-31, Abcam) overnight at 4°C. The slices were then visualized by incubation with FITC-conjugated secondary antibody (catalog E031220-01, Earthox) and DAPI (Biotium) under a confocal microscope (Leica)."}},
  "note": "Where a SMILES comes first, the peptide text is derived from it. The star is where a group is joined. X1 = O=C(O)CN1CCN(CC(=O)O)CC(Cc2ccc(NC(=S)*)cc2)N(CC(=O)O)CC1",
  "data": [
    {"compound": "OC[C@H]1OC(O)[C@H](F)[C@@H](O)[C@@H]1O", "note": "(some centres unmarked) [^18F-FDG, ^18F-fluorodeoxyglucose]", "values": [
      {"measurement": "change of tumor uptake from days 0 to 6, true-progression 4T1 model", "setting": "4T1 tumor–bearing mice", "result": "significantly increased"},
      {"measurement": "change of tumor uptake from days 0 to 6, pseudoprogression MC38 model", "setting": "MC38 tumor–bearing mice [1]", "result": "significantly increased"}
    ]},
    {"compound": "CC[C@H](C)[C@H](NC(=O)CNC(=O)CNC(=O)CNC(=S)Nc1ccc(CC2CN(CC(=O)O)CCN(CC(=O)O)CCN2CC(=O)O)cc1)C(=O)N[C@@H](CCC(=O)O)C(=O)N[C@@H](Cc1ccccc1)C(=O)N[C@H](C=O)CC(=O)O", "note": "(some centres unmarked) [^68Ga-NOTA-GZP, ^68Ga-1,4,7–triazacyclononane-1,4,7-triacetic acid–GZP, metal not drawn] (X1-GGGIEFD-aldehyde)", "values": [
      {"measurement": "in vivo metabolic stability in blood", "setting": "[2]; serum at 0.5 hours after injection", "result": "favorable stability in the blood"},
      {"measurement": "in vivo metabolic stability in urine", "setting": "[2]; urine at 0.5 hours after injection", "result": "some decomposition in urine"}
    ]},
    {"compound": "CCCCCCCCc1ccc(CCC(N)(CO)CO)cc1", "note": "[FTY720]", "values": [
      {"measurement": "effect on the antitumor effect of anti–PD-1 plus anti–CTLA-4", "setting": "MC38 tumor–bearing mice [3]; 25 μg i.p. on day –1, 10 μg daily day 0 to 12, n = 6–9", "result": "partially reversed the antitumor effect"},
      {"measurement": "body weight", "setting": "MC38 tumor–bearing mice [3]; MC38 mice, n = 6–9", "result": "without influencing body weight"},
      {"measurement": "granzyme B secretion in tumors (immunofluorescence)", "setting": "MC38 tumor–bearing mice [3]; MC38 tumors on day 6", "result": "reduced granzyme B secretion in tumors"},
      {"measurement": "levels of NK, CD4+ T and CD8+ T cells in tumor versus group without FTY720", "setting": "MC38 tumor–bearing mice [3]; flow cytometry, day 6, n = 5/group", "result": "significantly lower"}
    ]}
  ]
}
